Results: patent US20110124727A1, “Oxybuprocaine-Containing Analgesic/Antipruritic External Preparation” (Teikoku Seiyaku Co., LTD, priority 2008, published 2011)

Test system: male ddy strain mouse
Assay: Pharmacological test of antipruritic action using mice (Compound 48/80-induced scratching)
Conditions: for Number of times scratching occurred (mean ± standard error): counted for 30 minutes after Compound 48/80 100 μg/body s.c., oxybuprocaine in saline 10 mg/kg dorsal neck, cyproheptadine 1 mg/kg intraperitoneally, n=6

Structure (SMILES)	Number of times scratching occurred (mean ± standard error)	Antipruritic effect in words (suppression of scratching behaviors) (compared to saline control group and cyproheptadine group)
CN1CCC(=C2c3ccccc3C=Cc3ccccc32)CC1 [cyproheptadine]	76.7 ± 21.3	
CCCCOc1cc(C(=O)OCCN(CC)CC)ccc1N [oxybuprocaine, Oxybuprocaine]	45.8 ± 18.9	suppressed scratching behaviors strongly
